Reference: patent US12310948B2, “Application of monocyclic β-lactam compound in pharmacy” (SHENZHEN OPTIMUM BIOLOGICAL TECHNOLOGY CO., LTD, priority 2018, dated 2025)
Marks after values point to notes of the source that are not given here.

Tests used:
[1] = test system: Pseudomonas aeruginosa PA14; assay: Pulmonary Pseudomonas aeruginosa infection in immunosuppressive mice: lung bacterial load; type: in vivo; details: for LOG10 of Bacterial load: lung tissue 24 h after infection, immunosuppressed CD-1 mice, ip at 2 h, 4 h, 6 h, 8 h
Method: Pseudomonas aeruginosa PA14.
(§1) 46 female CD-1 (ICR) mice, supplied by Beijing Vital River Laboratory Animal Technology Co., Ltd., body weight of 23-27 g, 7 weeks old.
46 immunosuppressive mice were formed by intraperitoneal injection of cyclophosphamide 150 mg/kg on day 1 and day 4.
Seven groups were set up, including high, medium and low dose groups of compound represented by formula (I), high and medium-dose groups of compound I-g, aztreonam group and model group; there were 6 animals in each group, the other 4 animals were subjected to pulmonary infection for 2 h, and the lung tissues were removed to count the bacterial load. See the table below for specific grouping.
Mice were injected intratracheally with 50 μL of bacterial fluid (2×10^3 CFU). Four model mice were sacrificed 2 h after infection.
2 h after infection, the mice were injected intraperitoneally once at 2 h, 4 h, 6 h and 8 h according to the groups, for a total of 4 times.
24 h after infection, the mice in each group were sacrificed by cervical dislocation, and the lung and kidney tissues were removed aseptically, then placed into sterilized homogenate tube, weighed, added with proper amount of normal saline (NS), and homogenized by a homogenizer for 1 min; the lung tissues in model group were diluted 10^4, 10^5, and 10^6-fold, the lung tissues in each administration group were diluted 10 and 100-fold, the kidney tissues in model group were diluted 10^2, 10^3, and 10^4-fold, and the lung tissues in each administration group were diluted 10-fold; the serial diluents were plated onto TSA plates with a spiral coater, and incubated overnight at 37° C. to determine CFU counts with a colony counter.
(§2) CFU scatter plots of lung tissue were made using Graphpad Prism mapping software. The average CFU and body weight were calculated by SPSS 19.0 software, and the differences between groups were analyzed by variance analysis.
Mice were injected intraperitoneally with compounds of formula (I), compound I-g and aztreonam at 2 h, 4 h, 6 h and 8 h after infection; animals were sacrificed at 24 h, lung tissues were removed aseptically, immersed in normal saline (NS), homogenized, diluted appropriately, and then 50 μL of diluents were evenly plated onto TSA plates; the plates were incubated overnight in a 37° C. incubator to count the number of colonies, which was converted to CFU per milliliter by a dilution ratio, and logarithmic value of the bacterial load was calculated of base 10, and the mean and standard deviation were compared in each group.

[2] = Animal body weight in the in vivo protection test (pulmonary infection in mice); details: for Weight on day 1 / Weight on day 4 / Weight on day 5: ip
Method: as §1
The mice were weighed each day after the start of the test and body weight changes were recorded.
as §2

Structure (SMILES) | LOG10 of Bacterial load ([1]; total dose 400 mg/kg day) | Weight on day 1 ([2]; 400 mg/kg day group) [g] | Weight on day 4 ([2]; 400 mg/kg day group) [g] | Weight on day 5 ([2]; 400 mg/kg day group) [g] | Elimination of the bacteria infected on the lung (in words) ([1]; at the lowest dose) | Elimination of bacterial load in lung tissue (in words) ([1]; high, middle and low-dose groups, 24 h after infection) | LOG10 of Bacterial load ([1]; total dose 60 mg/kg day) | LOG10 of Bacterial load ([1]; total dose 120 mg/kg day) | LOG10 of Bacterial load ([1]; total dose 200 mg/kg day) | Weight on day 1 ([2]; 60 mg/kg day group) [g] | Weight on day 4 ([2]; 60 mg/kg day group) [g] | Weight on day 5 ([2]; 60 mg/kg day group) [g] | Weight on day 1 ([2]; 120 mg/kg day group) [g] | Weight on day 4 ([2]; 120 mg/kg day group) [g] | Weight on day 5 ([2]; 120 mg/kg day group) [g] | Weight on day 1 ([2]; 200 mg/kg day group) [g] | Weight on day 4 ([2]; 200 mg/kg day group) [g] | Weight on day 5 ([2]; 200 mg/kg day group) [g] | Safety conclusion from body weight (in words) ([2]; administration group)
C[C@H]1[C@H](NC(=O)/C(=N\OC(C)(C)C(=O)O)c2csc(N)n2)C(=O)N1S(=O)(=O)O [Aztreonam, aztreonam, reference compound] | 1.62 ± 2.22 | 27.16 ± 1.74 | 27.80 ± 2.37 | 28.02 ± 1.08 | – | – | – | – | – | – | – | – | – | – | – | – | – | – | –
CC1(C)[C@H](NC(=O)/C(=N\O[C@@H](COc2ccc3c(c2)CN(C(=N)N(CCCN)CCCN)C3)C(=O)O)c2csc(N)n2)C(=O)N1OS(=O)(=O)O [Compound represented by formula (I)] | – | – | – | – | completely eliminated | completely eliminated | 0** | 0** | 0** | 26.14 ± 1.21 | 27.76 ± 0.43 | 26.77 ± 1.02 | 26.47 ± 1.65 | 28.33 ± 1.14 | 28.01 ± 1.35 | 26.91 ± 1.03 | 28.03 ± 2.15 | 25.40 ± 2.75 | safe
CC1(C)[C@H](NC(=O)/C(=N\O[C@@H](COc2ccc(C(=N)N[C@@H]3CCCNC3)cc2)C(=O)O)c2csc(N)n2)C(=O)N1OS(=O)(=O)O [I-g, reference compound] | – | – | – | – | – | – | – | 1.58 ± 2.45 | 0** | – | – | – | 27.02 ± 1.12 | 28.21 ± 1.16 | 27.20 ± 0.96 | 27.25 ± 1.14 | 28.39 ± 1.60 | 26.43 ± 1.06 | –
